Data from US20050222168A1, “Beta-carboline derived guanidine alkaloids, tiruchenduramine” (Council of Scientific and Industrial Research, priority 2004, published 2005).

System: α-glucosidase
Experiment: in-vitro assay for anti-diabetic activity (α-glucosidase inhibition)
Format: biochemical
Conditions: amount printed without volume or percent inhibition
Text: The structure of compound 1 was established by the study of ^1H-^1H—COSY, HMQC, HMBC and NOESY spectral data (Table 1) as Formula 1.

amount at which it inhibits α-glucosidase: 788 µg
Structure (SMILES): N=C1NCC(CCNC(=O)c2cc3c(cn2)[nH]c2ccccc23)N1 (stereo not shown) [Tiruchenduramine, tiruchenduramine]
